Measured values: the NIST ThermoML archive (doi:10.1021/je049776w)

Legend:
[1] = xn = mol fraction of the nth substance listed; details: 101.3 kPa, Liquid, x2 = 0
[2] = 101.3 kPa, Liquid

CN1CCCC1=O [N-methylpyrrolidone] + Cc1ccc(C)cc1
[1]
Details	mass density [kg/m3]	viscosity [mPa·s]
303.15 K	1023.47	1.554
313.15 K	1014.55	1.332
323.15 K	1005.66	1.16
333.15 K	996.71	1.022
343.15 K	987.75	0.9084
353.15 K	978.76	0.8127

C1CCCCC1 [cyclohexane] + Cc1ccc(C)cc1
[1]
Details	mass density [kg/m3]	viscosity [mPa·s]
298.15 K	773.82	0.9027
303.15 K	769.1	0.8205
313.15 K	759.61	0.6963
323.15 K	749.98	0.5984
333.15 K	740.23	0.5195

CCCCCCCC [octane]
[2]
Details	mass density [kg/m3]	viscosity [mPa·s]
298.15 K	699.9	0.5206
303.15 K	695.72	0.4837
313.15 K	687.5	0.4306
323.15 K	679.37	0.3864
333.15 K	671.02	0.3495
343.15 K	662.54	0.3139
353.15 K	653.8	0.284

CCCCCCCC [octane] + Cc1ccc(C)cc1
[1]
Details	mass density [kg/m3]	viscosity [mPa·s]
298.15 K	699.9	0.5206
303.15 K	695.72	0.4837
313.15 K	687.5	0.4306
323.15 K	679.37	0.3864
333.15 K	671.02	0.3495
343.15 K	662.54	0.3139
353.15 K	653.8	0.284

CN1CCCC1=O [N-methylpyrrolidone]
[2]
Details	mass density [kg/m3]	viscosity [mPa·s]
303.15 K	1023.47	1.554
313.15 K	1014.55	1.332
323.15 K	1005.66	1.16
333.15 K	996.71	1.022
343.15 K	987.75	0.9084
353.15 K	978.76	0.8127

Cc1ccc(C)cc1 [1,4-dimethylbenzene]
[2]
Details	mass density [kg/m3]	viscosity [mPa·s]
298.15 K	856.7	0.6162
303.15 K	852.35	0.5715
313.15 K	843.64	0.508
323.15 K	834.9	0.4599
333.15 K	826.09	0.4298
343.15 K	817.17	0.3783
353.15 K	808.22	0.3382

CCCCCCC [heptane]
[2]
Details	mass density [kg/m3]	viscosity [mPa·s]
298.15 K	679.9	0.4009
303.15 K	675.65	0.375
313.15 K	667.08	0.3373
323.15 K	658.37	0.3074
333.15 K	649.53	0.2793
343.15 K	640.47	0.2541

C1CCCCC1 [cyclohexane]
[2]
Details	mass density [kg/m3]	viscosity [mPa·s]
298.15 K	773.82	0.9027
303.15 K	769.1	0.8205
313.15 K	759.61	0.6963
323.15 K	749.98	0.5984
333.15 K	740.23	0.5195

CCCCCCC [heptane] + Cc1ccc(C)cc1
[1]
Details	mass density [kg/m3]	viscosity [mPa·s]
298.15 K	679.9	0.4009
303.15 K	675.65	0.375
313.15 K	667.08	0.3373
323.15 K	658.37	0.3074
333.15 K	649.53	0.2793
343.15 K	640.47	0.2541
